For series [1], the system named is HMLER-shEcad mammospheres. Nature of the series: Mammosphere viability assay (TOX8). It is filed as cell-based, human. To be noted: 5 days incubation.
Protocol: Tumorsphere Formation and Viability Assay.
in ultralow-attachment 96-well plates (Corning) and incubated in MEGM supplemented with B27 (Invitrogen), 20 ng mL-1 EGF and 4 μg mL-1 heparin (Sigma) for 5 days. […] The viability of the mammospheres was determined by addition of a resazurin-based reagent, TOX8 (Sigma). After incubation for 16 h, the fluorescence of the solutions was read at 590 nm (λex = 560 nm). Viable mammospheres reduce the amount of the oxidised TOX8 form (blue) and concurrently increase the amount of the fluorescent TOX8 intermediate (red), indicating the degree of mammosphere cytotoxicity caused by the test compound. Fluorescence values were normalised to DMSO-containing controls and plotted as concentration of test compound versus % mammospheres viability. IC50 values were interpolated from the resulting dose dependent curves. The reported IC50 values are the average of three independent experiments, each consisting of two replicates per concentration level (overall n = 6).
Series [2] deals with MDA-MB-468 cells. Nature of the series: Monolayer cytotoxicity (MTT assay), MDA-MB-468 cells. It is filed as cell-based, human. Particulars: 72 h incubation. The text has this: Cell Lines and Cell Culture Conditions. The human mammary epithelial HMLER and HMLER-shEcad cell lines were kindly donated by Prof. R. A. Weinberg (Whitehead Institute, MIT). The human epithelial breast MCF10A, breast adenocarcinoma MDA-MB-231 and MDA-MB-468, murine epithelial breast 4T1, and embryonic kidney HEK 293 cell lines were acquired from American Type Culture Collection (ATCC, Manassas, VA, USA).
HMLER, HMLER-shEcad, and MCF10A cells were maintained in Mammary Epithelial Cell Growth Medium (MEGM) with supplements and growth factors (BPE, hydrocortisone, hEGF, insulin, and gentamicin/amphotericin-B). MDA-MB-231, MDA-MB-468, 4T1, and HEK 293 cells were maintained in Dulbecco's Modified Eagle's Medium (DMEM) supplemented with fetal bovine serum (10 %) and penicillin/streptomycin (1 %). The cells were grown at 310 K in a humidified atmosphere containing 5% CO2.
Monolayer Cytotoxicity Studies. Exponentially growing cells were seeded at a density of approximately 5 × 10^3 cells per well in 96-well flat-bottomed microplates and allowed to attach for 24 h prior to addition of compounds. Various concentrations of the test compounds (0.0004-100 μM) were added and incubated for 72 h at 37 °C (total volume 200 μl). Stock solutions of the compounds were prepared as 10 mM DMSO solutions and diluted using cell […]
media. The final concentration of DMSO in each well was ≤1 %. After 72 h, 20 μl of MTT (4 mg mL-1 in PBS) was added to each well and the plates incubated for an additional 4 h at 37 °C. The media/MTT mixture was eliminated and DMSO (100 μl per well) was added to dissolve the formazan precipitates. The optical density was measured at 550 nm using a 96-well multiscanner autoreader. Absorbance values were normalised to (DMSO-containing) control wells and plotted as concentration of test compound versus % cell viability. IC50 values were interpolated from the resulting dose dependent curves. The reported IC50 values are the average of three independent experiments (n = 18). […]
Cellular Uptake. […]

Series [3] is described as follows: Reaction with thiol-containing biomolecules (1H and 31P NMR). Particulars: 10 mM in DMSO-d6, 37 °C, 72 h. The procedure: As the mechanism of toxicity of many gold(I) complexes is associated to their interaction with thiol groups in proteins,[23] the reaction of 1 with N-acetylcysteine (NAC) and glutathione (GSH), model thiol-containing biomolecules, was probed using ^1H and ^31P{^1H} NMR spectroscopy studies (over 72 h at 37 °C). […] The ^31P{^1H} NMR studies also indicated the immediate formation of [Au^I(NAC)(PPh3)] or [Au^I(GSH)(PPh3)] (Fig. S50–S51 ^†). [Au^I(NAC)(PPh3)] and [Au^I(GSH)(PPh3)] were independently prepared in situ by reacting [Au^I(acac)(PPh3)][58] with NAC or GSH in DMSO-d6, to confirm the abovementioned assignments.

The subject of series [4] is HMLER-shEcad cells. Nature of the series: FITC Annexin V-propidium iodide assay. It is filed as cell-based, human. To be noted: IC50 value ×2, 48 h. The procedure:
Annexin V-Propidium Iodide Assay. HMLER-shEcad cells were incubated with and […]
harvested from adherent cultures by trypsinisation. The FITC Annexin V/Dead Cell Apoptosis Kit was used. The manufacture’s (Thermo Fisher Scientific) protocol was followed to carry out this experiment.
1× Annexin binding buffer (100 µL) (10 mM HEPES, 140 mM NaCl, 2.5 mM CaCl2, pH 7.4), then 5 µL FITC Annexin V and 1 µL PI (100 µg/ mL) were added to each sample and incubated at room temperature for 15 min. After which more 1× Annexin binding buffer (400 µL) was added while gently mixing. The cells were analysed using a FACSCanto II flow cytometer (BD Biosciences) (10,000 events per sample were acquired) at the University of Leicester FACS Facility. The FL1 channel was used to assess Annexin V binding and the FL2 channel was used to assess PI uptake. Cell populations were analysed using the FlowJo […]
ice-cold methanol (for 30 min), and suspended in PBS (200 μL). […]
(§1) COX-2 Inhibition Enzyme Immunoassay (EIA). […]
(§2) (ovine) Inhibitor Screening Assay (Cayman Chemicals).” The assay was performed according to the manuf acturer’s instructions using a 96-well plate set up.

The subject of series [5] is COX-2. As to the kind of experiment: COX-2 expression assay (flow cytometry). The series is classed as cell-based, human. To be noted: LPS 2.5 μM 24 h pre-treatment; 1 at IC50 value or indomethacin 20 μM, 48 h. The procedure:
COX-2 Expression Assay. HMLER-shEcad cells were seeded in 6-well plates (at a density […]
indomethacin (20 μM) and incubated for a further 48 h. The cells were then harvested by trypsinisation, fixed with 4% paraformaldehyde (at 37 °C for 10 min), permeabilised with ice-cold methanol (for 30 min), and suspended in PBS (200 μL). […]
labelled anti-COX-2 antibody (5 μL) was then added to the cell suspension and incubated in the dark for 1 h. The cells were then washed with PBS (1 mL) and analysed using a FACSCanto II flow cytometer (BD Biosciences) (10,000 events per sample were acquired) at the University of Leicester FACS Facility. The FL1 channel was used to assess COX-2 expression. Cell populations were analysed using the FlowJo software (Tree Star).
as §1, §2

With `COc1ccc2c(c1)c(CC(=O)[O][Au][PH](c1ccccc1)(c1ccccc1)c1ccccc1)c(C)n2C(=O)c1ccc(Cl)cc1` [complex 1], the values for the IC50 in series [1] and in series [2] were 2 ± 0.1 µM and 4.47 ± 0.17 µM, respectively. Also, the “reaction with stoichiometric NAC or GSH” value in series [3] is listed as “The reaction occurred immediately”. Besides, the apoptosis induction result in series [4] was “induced large populations of cells to undergo late-stage apoptosis”. Moreover, in series [5], the COX-2 expression entry is listed as “decreased”.

For orientation: IC50 means the concentration that inhibits the measured activity by half. High values mean weaker potency, low ones greater potency.

These data come from PMC9847679, “The anti-breast cancer stem cell properties of gold(I)-non-steroidal anti-inflammatory drug complexes” (Chemical Science, 2022).
